US20250099461A1 (JAPANESE FOUNDATION FOR CANCER RESEARCH, priority 2021, published 2025)

Experiments:
[1] = molecular target: EML4-ALK I1171N + L1198H (Homo sapiens, UniProt Q9UM73, I1171N/L1198H); assay: Ba/F3 cell viability, CellTiter-Glo
Method: (§1) Then, to search a drug overcoming these mutations, EML4-ALK I1171N+F1174I or EML4-ALK I1171N+L1198H was introduced into Ba/F3 cells (obtained from Riken BRC) and expressed therein. Using the expression cells and an inhibitor library mostly constituted of available kinase inhibitors, the cell-proliferation inhibitory effect was examined. Note that, the mutant gene-introduced cells to be used later were prepared by integrating a gene having a mutation into a lentiviral vector and introducing the vector into cells. The EML4-ALK fusion genes and mutants thereof to be used later were prepared based on the fusion genes disclosed in Non Patent Literature 1 unless otherwise specified.
(§2) The viable cells were counted 72 hours later in accordance with the CellTiter-Glo assay (Promega). The viability rates of cells are shown based on the number of viable cells when DMSO was added, as 100.

[2] = molecular target: EML4-ALK I1171N + F1174I (Homo sapiens, UniProt Q9UM73, F1174I/I1171N); assay: Ba/F3 cell viability, CellTiter-Glo
Method: as §1, §2

[3] = molecular target: EML4-ALK WT (Homo sapiens, UniProt Q9UM73); assay: Ba/F3 cell viability, CellTiter-Glo
Method: as §1, §2

[4] = Ba/F3 cell viability, CellTiter-Glo; conditions: mouse
[5] = in vitro; conditions: mouse
[6] = tested on: BaF3 cells Parent (+IL-3); assay: Ba/F3 cell viability, CellTiter-Glo; conditions: 50 nM, 72 hours, DMSO as 100, BaF3 Parent (+IL-3)
[7] = 50 nM, 72 hours, DMSO as 100, BaF3 EML4-ALK I1171N + L1198H
[8] = 50 nM, 72 hours, DMSO as 100, BaF3 EML4-ALK I1171N + F1174I, in %
[9] = 50 nM, 72 hours, DMSO as 100, BaF3 EML4-ALK WT, in %

COc1cc2c(Oc3ccc(NC(=O)C4(C(=O)Nc5ccc(F)cc5)CC4)cc3F)ccnc2cc1OCCCN1CCOCC1 [Foretinib]
viability rate of cells [1, 7]: 83.3%
viability rate of cells [2, 8]: 100.2
viability rate of cells [3, 9]: 92.7
viability at 72 h, 0.05 µM ([4]; parental Ba/F3 cells (+IL-3)): 77.9%

COc1cc2ncnc(Nc3ccc(F)c(Cl)c3)c2cc1OCCCN1CCOCC1 [Gefitinib]
viability at 72 h, 0.05 µM [5]: 80.9%
viability rate of cells ([1]; mouse, 72 h, 0.05 µM): 74.1%
viability rate of cells ([2]; mouse, 72 h, 0.05 µM): 155.6
viability rate of cells ([3]; mouse, 72 h, 0.05 µM): 98.7

Cc1ccc(NC(=O)c2ccc(CN3CCN(C)CC3)cc2)cc1Nc1nccc(-c2cccnc2)n1 [Imatinib]
viability at 72 h, 0.05 µM [5]: 81.6%
viability rate of cells ([1]; mouse, 72 h, 0.05 µM): 87.8%
viability rate of cells ([2]; mouse, 72 h, 0.05 µM): 116.1
viability rate of cells ([3]; mouse, 72 h, 0.05 µM): 69.4

COc1cc2nccc(Oc3ccc(NC(=O)NC4CC4)c(Cl)c3)c2cc1C(N)=O [Lenvatinib]
viability rate of cells ([1]; mouse, 72 h, 0.05 µM): 89.9%
viability rate of cells ([2]; mouse, 72 h, 0.05 µM): 114.2
viability rate of cells ([3]; mouse, 72 h, 0.05 µM): 91.8
viability at 72 h, 0.05 µM ([4]; parental Ba/F3 cells (+IL-3)): 81.6%

C[C@H]1Oc2cc(cnc2N)-c2c(nn(C)c2C#N)CN(C)C(=O)c2ccc(F)cc21 [Lorlatinib]
viability at 72 h, 0.05 µM ([4]; parental Ba/F3 cells (+IL-3)): 82.4%

C[C@]1(O)C[C@@H](c2nc(-c3ccc4ccc(-c5ccccc5)nc4c3)c3c(N)nccn32)C1 [OSI906]
viability at 72 h, 0.05 µM [5]: 105%
viability rate of cells ([1]; mouse, 72 h, 0.05 µM): 86.8%
viability rate of cells ([2]; mouse, 72 h, 0.05 µM): 138.9
viability rate of cells ([3]; mouse, 72 h, 0.05 µM): 149.7

C=CC(=O)Nc1cc(Nc2nccc(-c3cn(C)c4ccccc34)n2)c(OC)cc1N(C)CCN(C)C [Osimertinib]
viability rate of cells ([1]; mouse, 72 h, 0.05 µM): 87.2%
viability rate of cells ([2]; mouse, 72 h, 0.05 µM): 122.4
viability rate of cells ([3]; mouse, 72 h, 0.05 µM): 81.9
viability at 72 h, 0.05 µM [4]: 91.1%

Cc1ccc(C(=O)Nc2ccc(CN3CCN(C)CC3)c(C(F)(F)F)c2)cc1C#Cc1cnc2cccnn12 [Ponatinib]
viability rate of cells [1, 7]: 77.3%
viability rate of cells [2, 8]: 122.1
viability rate of cells [3, 9]: 97.4
viability at 72 h, 0.05 µM ([4]; parental Ba/F3 cells (+IL-3)): 64.8%

Nc1nc(Nc2ccc3c(c2)CCC(N2CCCC2)CC3)nn1-c1cc2c(nn1)-c1ccccc1CCC2 (centres unmarked) [R428]
viability rate of cells [1, 7]: 85%
viability rate of cells [2, 8]: 142.5
viability rate of cells [3, 9]: 99.7
viability rate of cells [6]: 84.1%

CCN(CC)CCNC(=O)c1c(C)[nH]c(/C=C2\C(=O)Nc3ccc(F)cc32)c1C [Sunitinb]
viability rate of cells [6]: 83.1%

COc1cc2c(Nc3ccc(Br)cc3F)ncnc2cc1OCC1CCN(C)CC1 [Vandetanib]
viability at 72 h, 0.05 µM ([4]; parental Ba/F3 cells (+IL-3)): 97.8%
